The values below are quoted from earlier work in US8653026B2, “Treatment of type 2 diabetes with FTY720” (Diapin Therapeutics LLC, priority 2011, dated 2014).

Targets include S1P1 (Homo sapiens, UniProt P21453); S1P3 (Homo sapiens, UniProt Q99500); S1P5 (Homo sapiens, UniProt Q9H228); S1P2 (Homo sapiens, UniProt O95136).
Conditions in all cases: literature reference (25); cited from earlier work
For the next data set, the target named is T1, S1P4 (Homo sapiens, UniProt O95977).
T1 sequence (O95977 1-384): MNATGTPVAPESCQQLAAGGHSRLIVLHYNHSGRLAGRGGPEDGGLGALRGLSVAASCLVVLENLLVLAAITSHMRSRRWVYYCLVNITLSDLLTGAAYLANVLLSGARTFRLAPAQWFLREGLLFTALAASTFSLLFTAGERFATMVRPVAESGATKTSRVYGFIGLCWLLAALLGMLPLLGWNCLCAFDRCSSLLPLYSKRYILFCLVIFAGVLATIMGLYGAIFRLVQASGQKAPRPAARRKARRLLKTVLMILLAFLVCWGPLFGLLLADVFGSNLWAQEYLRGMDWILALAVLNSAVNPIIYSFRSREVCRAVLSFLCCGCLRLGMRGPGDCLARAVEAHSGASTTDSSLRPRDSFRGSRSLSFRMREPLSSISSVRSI

S1P5, sequence (Q9H228 whole entry, species assumed): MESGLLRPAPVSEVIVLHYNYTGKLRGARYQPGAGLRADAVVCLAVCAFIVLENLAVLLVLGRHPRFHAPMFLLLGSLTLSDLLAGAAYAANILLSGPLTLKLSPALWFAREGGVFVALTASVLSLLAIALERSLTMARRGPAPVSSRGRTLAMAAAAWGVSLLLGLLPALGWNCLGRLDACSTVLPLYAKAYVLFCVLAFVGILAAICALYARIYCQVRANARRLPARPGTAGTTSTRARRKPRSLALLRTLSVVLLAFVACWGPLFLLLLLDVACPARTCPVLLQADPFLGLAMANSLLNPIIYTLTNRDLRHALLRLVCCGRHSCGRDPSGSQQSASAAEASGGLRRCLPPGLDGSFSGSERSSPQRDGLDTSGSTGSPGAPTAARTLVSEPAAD
S1P1, sequence (P21453 whole entry, species assumed): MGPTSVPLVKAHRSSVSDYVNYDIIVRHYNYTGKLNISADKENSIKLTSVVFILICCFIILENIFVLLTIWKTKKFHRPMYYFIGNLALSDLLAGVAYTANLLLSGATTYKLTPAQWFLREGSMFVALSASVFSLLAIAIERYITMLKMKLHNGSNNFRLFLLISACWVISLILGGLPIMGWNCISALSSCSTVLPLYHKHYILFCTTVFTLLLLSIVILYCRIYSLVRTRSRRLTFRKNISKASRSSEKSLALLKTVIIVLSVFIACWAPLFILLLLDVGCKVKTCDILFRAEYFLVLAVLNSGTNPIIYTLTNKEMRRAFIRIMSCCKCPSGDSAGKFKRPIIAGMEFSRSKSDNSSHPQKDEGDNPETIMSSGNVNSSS
S1P2, sequence (O95136 whole entry, species assumed): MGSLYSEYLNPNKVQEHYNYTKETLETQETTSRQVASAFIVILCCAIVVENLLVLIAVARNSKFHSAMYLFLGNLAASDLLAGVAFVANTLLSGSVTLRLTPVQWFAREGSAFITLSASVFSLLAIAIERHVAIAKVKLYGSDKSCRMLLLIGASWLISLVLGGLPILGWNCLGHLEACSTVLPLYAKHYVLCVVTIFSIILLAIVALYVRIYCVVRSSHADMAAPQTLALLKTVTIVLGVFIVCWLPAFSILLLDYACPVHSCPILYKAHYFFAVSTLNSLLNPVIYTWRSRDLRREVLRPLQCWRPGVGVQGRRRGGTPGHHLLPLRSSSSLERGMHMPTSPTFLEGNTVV
S1P3, sequence (Q99500 whole entry, species assumed): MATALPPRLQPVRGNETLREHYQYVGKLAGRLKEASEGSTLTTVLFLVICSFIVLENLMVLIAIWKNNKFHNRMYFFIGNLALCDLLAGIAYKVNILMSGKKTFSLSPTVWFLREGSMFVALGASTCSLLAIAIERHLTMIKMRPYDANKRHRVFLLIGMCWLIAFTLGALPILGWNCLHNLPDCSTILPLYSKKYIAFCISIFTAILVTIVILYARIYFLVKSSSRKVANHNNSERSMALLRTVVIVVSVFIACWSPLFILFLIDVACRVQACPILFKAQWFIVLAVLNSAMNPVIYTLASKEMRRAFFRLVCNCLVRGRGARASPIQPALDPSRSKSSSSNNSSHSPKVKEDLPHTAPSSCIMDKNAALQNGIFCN

In the case of `CCCCCCCCc1ccc(CCC(N)(CO)COP(=O)(O)O)cc1` (centres unmarked) [FTY720-P, 2-amino-2-(hydroxymethyl)-4-(4-octylphenyl)butyl dihydrogen phosphate], the “binding to S1P1” value at S1P1 was “binds”. In addition, the “binding to S1P3” value on S1P3 is listed as “binds”. Further, the “binding to S1P4” value at S1P4 is given as “binds”. The “binding to S1P5” value at S1P5 is given as “binds”. In addition, at S1P2, the “binding to S1P2” value is “but not S1P2”.
